# Data from patent US11897883B1, “Pyrrolo[3,2-c][1,6]naphthyridine-2-carboxylic acid compounds as CK2 inhibitors” (KING FAISAL UNIVERSITY, priority 2023, dated 2024).
# Tests used:
# [1] = tested on: A375 (melanoma); assay: In vitro cytotoxic activity MTT assay, A375; type: cell-based; settings: Homo sapiens, A-375, 96 hours exposure, read-out: IC50, concentration eliciting a 50% inhibition of cell proliferation
# Procedure: (§1) Compounds 1-16 were screened for their in vitro cytotoxic activity utilizing a 3-(4,5-dimethyl-thiazol-2-yl)-2,5-diphenyltetrazolium bromide (MTT) assay against selected cancer human cell lines consisting of PC3 (prostate), HCT116 (colon), A375 (melanoma), H1299 (lung), MIAPaCa-2 (pancreas), HL60 (leukemia), MCF7 (breast), MDA-MB-231 (breast) (T. Mosmann, J. Immunol. Meth., 1983, 65, 55-63). The cells were cultured at 37° C. in RMPI1640 medium supplemented with 10% fetal bovine serum, 50 IU/mL penicillin, and 50 μg/mL streptomycin in a 5% CO2 incubator. All cells were sub-cultured 3 times/week by trypsinisation. Viable cells were seeded and allowed to adhere for 12 h before a test drug was added in 96-well plates at an initial density of 1.0×10^5 cells/mL. Tumour cell lines were separately exposed to various concentrations of the tested compounds followed by incubation at a temperature of 37° C. during 96 h inside a medium of fresh RMPI 1640. Cells were subsequently incubated at 37° C. using MTT at 0.5 mg/mL during 4 h. After removal of supernatant, formazan crystals were dissolved in isopropanol and the optical density was measured at 570 nm. CX-4945 was used as a positive control.
# [2] = tested on: MDA-MB-231 (breast); assay: In vitro cytotoxic activity MTT assay, MDA-MB-231; type: cell-based; settings: Homo sapiens, 96 hours exposure, read-out: IC50, concentration eliciting a 50% inhibition of cell proliferation
# Procedure: as §1
# [3] = tested on: H1299 (lung); assay: In vitro cytotoxic activity MTT assay, H1299; type: cell-based; settings: Homo sapiens, NCI-H1299, 96 hours exposure, read-out: IC50, concentration eliciting a 50% inhibition of cell proliferation
# Procedure: as §1
# [4] = molecular target: T1, recombinant human CK2 (RRββ-holoenzyme) (Homo sapiens, UniProt P68400); assay: CK2 Kinase Assay (33P-ATP, substrate peptide RRRDDDSDDD); type: biochemical; settings: final ATP 15 μM, 10 min at 30 °C; read-out: protein kinase CK2 IC50
# T1 construct: purchased Millipore
# Procedure: CK2 Kinase Assay was conducted using the protocol as described in Pierre F. et al.; J. Med. Chem. 2011, 54, 635-654. The tested compounds in aqueous solution were added at a volume of 10 μL to a reaction mixture comprising 10 μL of assay dilution buffer (ADB; 20 mM MOPS, pH 7.2, 25 mM β-glycerol phosphate, 5 mM EGTA, 1 mM sodium orthovanadate, and 1 mM dithiothreitol), 10 μL of substrate peptide (RRRDDDSDDD, dissolved in ADB at a concentration of 1mM), 10 μL of recombinant human CK2 (RRββ-holoenzyme, 25 ng dissolved in ADB; Millipore). Reactions were initiated by the addition of 10 μL of ATP solution (90% 75 mMMgCl2, 75 μM ATP (final ATP concentration:15 μM) dissolved in ADB; 10% [γ-33P] ATP (stock 1 mCi/100 μL; 3000 Ci/mmol (Perkin-Elmer) and maintained for 10 min at 30 ° C. The reactions were quenched with 100 μL of 0.75% phosphoric acid and then transferred to and filtered through a phosphor cellulose filter plate (Millipore). After washing each well five times with 0.75% phosphoric acid, the plate was dried under vacuum for 5 min and, following the addition of 15 μL of scintillation fluid to each well, the residual radioactivity was measured using a Wallac luminescence counter. The IC50 values were derived from eight concentrations of test inhibitors.
# [5] = tested on: HCT116 (colon); assay: In vitro cytotoxic activity MTT assay, HCT116; type: cell-based; settings: Homo sapiens, HCT-116, 96 hours exposure, read-out: IC50, concentration eliciting a 50% inhibition of cell proliferation
# Procedure: as §1
# [6] = tested on: HL60 (leukemia); assay: In vitro cytotoxic activity MTT assay, HL60; type: cell-based; settings: Homo sapiens, HL-60, 96 hours exposure, read-out: IC50, concentration eliciting a 50% inhibition of cell proliferation
# Procedure: as §1
# [7] = tested on: MIAPaCa-2 (pancreas); assay: In vitro cytotoxic activity MTT assay, MIAPaCa-2; type: cell-based; settings: Homo sapiens, MIA PaCa-2, 96 hours exposure, read-out: IC50, concentration eliciting a 50% inhibition of cell proliferation
# Procedure: as §1
# [8] = tested on: PC3 (prostate); assay: In vitro cytotoxic activity MTT assay, PC3; type: cell-based; settings: Homo sapiens, 96 hours exposure, read-out: IC50, concentration eliciting a 50% inhibition of cell proliferation
# Procedure: as §1
# [9] = tested on: MCF7 (breast); assay: In vitro cytotoxic activity MTT assay, MCF7; type: cell-based; settings: Homo sapiens, 96 hours exposure, read-out: IC50, concentration eliciting a 50% inhibition of cell proliferation
# Procedure: as §1
# T1 sequence (P68400 whole entry): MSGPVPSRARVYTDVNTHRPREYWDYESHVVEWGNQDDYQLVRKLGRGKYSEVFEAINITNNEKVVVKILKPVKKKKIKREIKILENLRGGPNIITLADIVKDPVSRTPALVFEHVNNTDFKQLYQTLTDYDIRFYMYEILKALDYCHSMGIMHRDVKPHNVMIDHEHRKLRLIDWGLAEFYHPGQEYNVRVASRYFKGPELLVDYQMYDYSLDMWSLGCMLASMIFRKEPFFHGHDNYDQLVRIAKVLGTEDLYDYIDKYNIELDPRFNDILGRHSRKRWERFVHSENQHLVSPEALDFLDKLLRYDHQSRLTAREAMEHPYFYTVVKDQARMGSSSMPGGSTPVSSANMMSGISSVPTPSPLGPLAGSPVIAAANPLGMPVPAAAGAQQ
# T1 sequence (P67870 whole entry partner): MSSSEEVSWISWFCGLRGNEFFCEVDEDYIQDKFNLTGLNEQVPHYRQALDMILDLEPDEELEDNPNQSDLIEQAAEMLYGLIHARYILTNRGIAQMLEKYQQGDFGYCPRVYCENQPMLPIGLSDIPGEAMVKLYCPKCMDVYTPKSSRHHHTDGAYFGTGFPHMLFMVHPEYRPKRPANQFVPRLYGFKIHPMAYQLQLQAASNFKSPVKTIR
smiles,measurement,setting,value
"O=C(O)c1cc2c(Nc3cccc(Cl)c3)nc3ccncc3c2[nH]1 [Compound 1, 4-((3-chlorophenyl)amino)-1H-pyrrolo[3,2-c][1,6]naphthyridine-2-carboxylic acid]",IC50,[1],2900 nM
same,IC50,[2],3700 nM
same,IC50,[3],1400 nM
same,IC50,[4],26 nM
same,IC50,[5],1300 nM
same,IC50,[6],2500 nM
same,IC50,[7],1100 nM
same,IC50,[8],2100 nM
same,IC50,[9],4200 nM
